Assay results reported in patent US20240122853A1, “COMPOSITION FOR PENETRATING BLOOD-BRAIN BARRIER, CONTAINING SONOSENSITIVE LIPOSOMES AS ACTIVE INGREDIENTS” (IMGT CO, LTD., priority 2021, published 2024).

Experiment: Evans blue penetration after blood-brain barrier opening by ultrasound and microbubbles
Type: in vivo, BALB/c nude mice
Procedure: To derive the optimal ultrasound conditions for opening the blood-brain barrier (BBB), the degree of opening of the blood-brain barrier was compared and analyzed using Evans blue. Evans blue is a very small dye with a molecular weight of 961 Da and is widely used for analyzing the degree of opening of the blood-brain barrier. The experiment was performed using normal BALB/c nude mice, and after injecting microbubbles via intravenous injection, ultrasound was emitted using a high-intensity focused ultrasound device, VIFU2000. […] The brain tissue was soaked in formamide, incubated overnight at 70° C. to extract Evans blue in the brain tissue, and the degree of opening of the blood-brain barrier was quantitatively analyzed by measuring the absorbance at wavelengths of 670 nm and 740 nm using UV-vis.
Factors that can affect the cavitation of ultrasound and microbubbles, a mechanism that opens the blood-brain barrier, include ultrasound conditions such as the frequency, intensity, duty cycle, and ultrasound emission time of the ultrasound, and also the number of microbubbles. Therefore, to confirm the ultrasound conditions and the number of microbubbles that can open the blood-brain barrier, the degree of opening of the blood-brain barrier according to the number of microbubbles was first quantitatively analyzed. […]

Penetration effect into brain depending on ultrasound intensity and emission time (microbubbles 5×10^6/g, 1-3 W, duty cycle 1-10%, 60-180 s): increased proportionally
SMILES: Cc1cc(-c2ccc(/N=N/c3ccc4c(S(=O)(=O)O)cc(S(=O)(=O)O)c(N)c4c3O)c(C)c2)ccc1/N=N/c1ccc2c(S(=O)(=O)O)cc(S(=O)(=O)O)c(N)c2c1O [Evans blue]
Penetration efficiency into brain depending on number of microbubbles (1 MHz, 1 W, DC 5%, PRF 1 Hz, 60 s, 2, 5, 10 × 10^6/g microbubbles, brain 24 hours later): improving the penetration efficiency of Evans blue
